The test system of one series is HIV-1 IIIB. The series is described as follows: microbe, parasite or virus in culture. It is filed as cell-based. The conditions noted are these: for inhibition activity (anti-HIV): in up to 50 μM concentrations. Here is the method:
(§1) Inhibition of HIV-1 cell replication was tested using the cMAGI assay, which is based on the ability of HIV-1 TAT to transactivate the expression of an integrated β-galactosidase reporter gene driven by the HIV-LTR (B. Chackeria et al., J. Virol., (1997) 71, 3932; Collins et al., Nat. Med. (2000) 6, 475). The β-galactosidase reporter is modified to remain localized in the nucleus where it can be detected with the X-gal (5-bromo-4-chloro-3indoyl-β-D-galactopyranoside) substrate as an intense nuclear stain within a few days of infection.
(§2) HIV-1 isolates were propagated by subculture in MT2 cells (Litovchick et al. (2001) supra). Aliquots of cell-free culture supernatants were used as viral inoculum. PAACs were dissolved in the RPMI 1640 medium. Cytotoxicity determinations were carried out in MT2 cells by trypan blue exclusion assay. Viral inhibition was determined by incubating MT2 or cMAGI HIV-1 reporter cells with 0.2-0.5 multiplicity of infection of HIV-1 wild type or resistant virus for 4 days at 37° C. in the presence or absence of various concentrations of pAACs. HIV-1 infection of cMAGI cells was determined by counting the number of HIV-1-infected cells (stained blue). The cytopathic effects of the viral infection of MT2 cells were also analyzed by microscopic assessment of syncytium formation.

The target in the next series is T1, CXCR4 (Homo sapiens, UniProt P61073).
T1 construct: incubated at 4° C. with anti-CXCR4 mAb, 12G5, conjugated to phycoerithrine (PE); endogenous in cells; host or cells: MT2 cells
T1 sequence (P61073 whole entry): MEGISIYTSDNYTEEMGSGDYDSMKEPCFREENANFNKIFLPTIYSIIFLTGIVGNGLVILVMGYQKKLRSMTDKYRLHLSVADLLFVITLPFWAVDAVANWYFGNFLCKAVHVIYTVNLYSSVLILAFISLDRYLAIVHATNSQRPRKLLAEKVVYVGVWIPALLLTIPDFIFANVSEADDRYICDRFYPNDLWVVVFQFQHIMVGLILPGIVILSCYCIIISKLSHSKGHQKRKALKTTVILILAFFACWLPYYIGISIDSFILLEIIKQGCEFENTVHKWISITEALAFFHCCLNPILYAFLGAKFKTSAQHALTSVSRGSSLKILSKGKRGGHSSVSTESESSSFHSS
The series is described as follows: Competition with 12G5 mAb binding to CXCR4 on MT2 cells (flow cytometry). The conditions noted are these: for median fluorescent intensity (MFI) of 12G5 mAb binding to MT2 cells: without compound 55.56, isotype control 4.0. The protocol: Interaction of pAACs and arginine peptides with CXCR4 coreceptor: Interactions of pAACs and arginine-peptides with CXCR4 were determined by flow cytometry (FACS-Scan, Becton Dickinson) as previously described (Litovich (2001) supra). In brief, 0.5×10^6 MT2 cells were washed with ice-cold PBS containing 0.1% sodium azide (wash buffer) and were incubated at 4° C. with anti-CXCR4 mAb, 12G5, conjugated to phycoerithrine (PE), in the absence or presence of different concentrations of pAACs and arginine peptides. After 30 minutes of incubation, the cells were washed with ice-cold wash buffer and fixed in PBS containing 1% paraformaldehyde. Non-specific fluorescence was assessed using an isotype control. For each sample 10,000 events were acquired. Data were analyzed and processed using CellQuest™ software (Becton Dickinson).

The nature of a further series: in vitro. In kind it is cell-based. The conditions noted are these: human, read-out: Cytotoxicity. Here is the method:
Cytotoxicity of the various pAACs was determined using the trypan blue exclusion assay. In brief, a sample of the cell suspension was diluted 1:1 (v/v) with 0.4% trypan blue and the cells were counted using a hemocytometer. Results are expressed as the percentage of dead cells.
as §2

A further series concerns HIV-1 Ba-L. In kind it is cell-based. The conditions noted are these: Table 4. Here is the method:
as §1, §2

In series [1] the test system is HIV-1 NeoR6 resistant virus. In kind it is cell-based. The conditions noted are these: read-out: EC50 NeoR6^Res; Table 4. Here is the method: as §1, §2
For series [2], the system named is HIV-1 clinical isolate Clade A. In kind it is cell-based. Here is the method: as §1, §2
In series [3] the test system is HIV-1 Protease resistant virus. It is filed as cell-based. The conditions noted are these: Table 4; read-out: EC50 Protease^Res. The protocol: as §1, §2
Series [4] relates to HIV-1 AZT resistant virus. It is filed as cell-based. The conditions noted are these: Table 4; read-out: EC50 AZT^Res. Here is the method: as §1, §2
Series [5] deals with HIV-1 clinical isolate Clade C. In kind it is cell-based. Here is the method:
as §1, §2

The subject of series [6] is HIV-1 wild-type and NeoR6 resistant isolates. The conditions noted are these: cited from earlier work.
The mark [7] stands for this setting: Table 3, against HIV-1 IIIB virus, read-out: EC50.
[8] abbreviates: MT2 cells, Table 3, trypan blue exclusion.
Where [9] appears, read: Table 4, tryphan blue exclusion assay for MT2 cells.
Where [10] appears, read: Table 4, read-out: EC50 Clade A.
[11] abbreviates: Table 4, read-out: EC50 Clade C.

Read-outs that look alike come from different tables or passages of the source.

By EC50 is commonly meant the concentration needed to bring the measured effect to its halfway point. The inhibition is how much of the control response was suppressed. For the compound `N=C(N)NCCC[C@H](NC(=O)[C@H](CCCNC(=N)N)NC(=O)[C@H](CCCNC(=N)N)NC(=O)[C@H](CCCNC(=N)N)NC(=O)[C@H](CCCNC(=N)N)NC(=O)[C@@H](N)CCCNC(=N)N)C(=O)NC[C@H]1O[C@H](O[C@H]2[C@H](O)[C@@H](O)[C@H](N)C[C@@H]2N)[C@H](N)[C@@H](O)[C@@H]1O` [Compound 2, L-Arg-6-mer-neamine], the concentration for a half-maximal effect (EC50) in the series on HIV-1 IIIB (setting [7]) amounted to 70 ± 10 µM. Besides, the inhibition at 20 µM at CXCR4 (read-out: % Inhibition of 12G5 mAb binding to CXCR4, 20 μM) stood at 35.4%. In addition, the CC50 in “in vitro” (setting [8]) was 210 µM.

For the compound L-Arg-6-mer-neomycin [Compound 4], the concentration giving a half-maximal response (EC50) in the series on HIV-1 IIIB (setting [7]) was found to be 40 ± 12 µM.

With `CC(=O)N[C@H](CCCNC(=N)N)C(=O)N[C@H](CCCNC(=N)N)C(=O)N[C@H](CCCNC(=N)N)C(=O)N[C@H](CCCNC(=N)N)C(=O)N[C@H](CCCNC(=N)N)C(=O)N[C@H](CCCNC(=N)N)C(=O)NC[C@H]1O[C@H](O[C@H]2[C@H](O)[C@@H](O)[C@H](N)C[C@@H]2N)[C@H](N)[C@@H](O)[C@@H]1O` [Compound 10, D-Arg-6-mer-neamine], the EC50 was 1.8 ± 0.1 µM in the series on HIV-1 IIIB (Table 4, read-out: EC50 IIIB); more than 50 µM in the series on HIV-1 Ba-L; 2.6 ± 1.2 µM in series [1]; 3.2 ± 1.3 µM in series [2] (setting [10]); 2.2 ± 0.4 µM in series [3]; 7 ± 4 µM in series [4]. The 50% effective concentration (EC50) in series [5] (setting [11]) is 1.7 ± 0.1 µM. For the same compound, the “% Inhibition of 12G5 mAb binding to CXCR4” value on CXCR4 (2 μM) worked out at 91.1%. Also, the “median fluorescent intensity (MFI) of 12G5 mAb binding to MT2 cells” value is 9.6 on CXCR4 (2 μM) and 3.3 on CXCR4 (10 μM). At CXCR4 (read-out: % Inhibition of 12G5 mAb binding to CXCR4, 2 μM), the inhibition at 2 µM stood at 91%. Besides, at CXCR4 (read-out: % Inhibition of 12G5 mAb binding to CXCR4, 10 μM), the inhibition at 10 µM worked out at 100%. For the same compound, the CC50 in “in vitro” (setting [9]) stood at 150 µM.

`N=C(N)NCCC[C@H](NC(=O)[C@H](CCCNC(=N)N)NC(=O)[C@H](CCCNC(=N)N)NC(=O)[C@H](CCCNC(=N)N)NC(=O)[C@H](CCCNC(=N)N)NC(=O)[C@H](CCCNC(=N)N)NC(=O)[C@H](CCCNC(=N)N)NC(=O)[C@H](CCCNC(=N)N)NC(=O)[C@@H](N)CCCNC(=N)N)C(=O)NC[C@H]1O[C@H](O[C@H]2[C@H](O)[C@@H](O)[C@H](N)C[C@@H]2N)[C@H](N)[C@@H](O)[C@@H]1O` [Compound 6, L-Arg-9-mer-neamine]: the half-maximal effective concentration (EC50) with HIV-1 IIIB (setting [7]) was 37.5 ± 2.5 µM. Also, the inhibition at 80 µM at CXCR4 (read-out: % Inhibition of 12G5 mAb binding to CXCR4, 80 μM) amounted to 30.1%. For the same compound, the CC50 in the series “in vitro” (setting [8]) was 175 µM.

On to `NC[C@H]1O[C@H](O[C@H]2[C@H](O)[C@@H](O)[C@H](N)C[C@@H]2N)[C@H](N)[C@@H](O)[C@@H]1O` [neamine, Neamine, reference compound], for which, in the series on HIV-1 IIIB, the “inhibition activity (anti-HIV)” value is listed as “no inhibition activity”.

As for `N=C(N)NCCC[C@H](NC(=O)[C@H](CCCNC(=N)N)NC(=O)[C@H](CCCNC(=N)N)NC(=O)[C@H](CCCNC(=N)N)NC(=O)[C@H](CCCNC(=N)N)NC(=O)[C@@H](N)CCCNC(=N)N)C(=O)NC[C@@H]1O[C@H](O[C@H]2[C@@H](O)[C@H](O[C@@H]3[C@@H](O)[C@H](N)C[C@H](N)[C@H]3O[C@H]3O[C@H](CO)[C@@H](O)[C@H](O)[C@H]3N)O[C@@H]2CO)[C@H](N)[C@@H](O)[C@@H]1O` [Compound 3, L-Arg-6-mer-paromomycin], the half-maximal effective concentration (EC50) in the series with HIV-1 IIIB (setting [7]) came to 31 ± 10 µM. For the same compound, the CC50 in the series “in vitro” (setting [8]) came out at 160 µM.

As to `N=C(N)NCCC[C@H](NC(=O)[C@@H](N)CCCNC(=N)N)C(=O)NCC1OC(OC2C(N)CC(N)C(O)C2O)C(N)C(O)C1O` (stereo partly drawn) [Compound 21, L-Arg-2-mer-neamine], the EC50 in the series on HIV-1 IIIB (setting [7]) is approximately 46 µM.

On to `N=C(N)NCCCC(N)C(=O)NC(CCCNC(=N)N)C(=O)NC(CCCNC(=N)N)C(=O)NC(CCCNC(=N)N)C(=O)NC(CCCNC(=N)N)C(=O)NC(CCCNC(=N)N)C(=O)NC(CCCNC(=N)N)C(=O)NC(CCCNC(=N)N)C(=O)NC(CCCNC(=N)N)C(=O)NC[C@H]1O[C@H](O[C@H]2[C@H](O)[C@@H](O)[C@H](N)C[C@@H]2N)[C@H](N)[C@@H](O)[C@@H]1O` (stereo partly drawn) [Compound 16, D/L-Arg-9-mer-neamine], for which the CC50 in “in vitro” (setting [8]) came out at 160 µM.

`CC(=O)N[C@H](CCCNC(=N)N)C(=O)N[C@H](CCCNC(=N)N)C(=O)N[C@H](CCCNC(=N)N)C(=O)N[C@H](CCCNC(=N)N)C(=O)N[C@H](CCCNC(=N)N)C(=O)N[C@H](CCCNC(=N)N)C(=O)O` [Compound 9, D-Arg-6-mer-NHAc]: the concentration giving a half-maximal response (EC50) is 5.8 ± 1.7 µM in the series on HIV-1 IIIB (Table 4, read-out: EC50 IIIB); more than 50 µM in the series with HIV-1 Ba-L; 6.8 ± 0.7 µM in series [1]; 8 ± 1 µM in [2] (clinical isolate Clade A); 4.9 ± 1 µM in series [3]; 15.2 ± 6.2 µM in series [4]. The compound further had an EC50 in series [5] (clinical isolate Clade C) of 5.3 ± 0.3 µM. Further, the inhibition at 2 µM on CXCR4 (2 μM, read-out: % Inhibition of 12G5 mAb binding to CXCR4) is 1.6%. On CXCR4 (10 μM, read-out: % Inhibition of 12G5 mAb binding to CXCR4), the inhibition at 10 µM was 70.9%. Moreover, in “in vitro” (setting [9]), the CC50 came out at 170 µM.

Regarding D-Arg-6-mer-neomycin [Compound 11], the concentration for a half-maximal effect (EC50) with HIV-1 IIIB (Table 4, read-out: EC50 IIIB) was 2.1 ± 0.6 µM; in the series with HIV-1 Ba-L, more than 50 µM; in series [1], 5.3 ± 2.5 µM; in [2] (setting [10]), 5.7 ± 2.8 µM; in series [3], 4 ± 1 µM; in series [4], 10.4 ± 4.1 µM. The half-maximal effective concentration (EC50) in series [5] (setting [11]) was 3 ± 0.8 µM. The “% Inhibition of 12G5 mAb binding to CXCR4” value on CXCR4 (2 μM) stood at 79%; on CXCR4 (2 μM, listed as r6-D-arginine-neomycin), 91.1%; on CXCR4 (10 μM), 99.3%.

As for `N=C(N)NCCC[C@H](NC(=O)[C@H](CCCNC(=N)N)NC(=O)[C@H](CCCNC(=N)N)NC(=O)[C@H](CCCNC(=N)N)NC(=O)[C@H](CCCNC(=N)N)NC(=O)[C@@H](N)CCCNC(=N)N)C(=O)O` [Compound 1, L-Arg-6mer-NH2], the EC50 in the series with HIV-1 IIIB (setting [7]) amounted to 110 µM. In addition, in the series with HIV-1 IIIB, the “inhibition activity (anti-HIV)” value was “no inhibition activity”.

Regarding “tri-arginine gentamycin C1 conjugate [Compound R3G]”, in series [6], the “times more resistant, NeoR6^res isolates than wild-type virus” value is “about 5 times”. In addition, in [6] (wild-type and NeoR6 resistant isolates), the half-maximal effective concentration (EC50) was 4.1 µM.

As to `N=C(N)NCCC[C@H](NC(=O)[C@H](CCCNC(=N)N)NC(=O)[C@H](CCCNC(=N)N)NC(=O)[C@H](CCCNC(=N)N)NC(=O)[C@H](CCCNC(=N)N)NC(=O)[C@H](CCCNC(=N)N)NC(=O)[C@H](CCCNC(=N)N)NC(=O)[C@H](CCCNC(=N)N)NC(=O)[C@@H](N)CCCNC(=N)N)C(=O)NC[C@@H]1O[C@H](O[C@H]2[C@@H](O)[C@H](O[C@@H]3[C@@H](O)[C@H](N)C[C@H](N)[C@H]3O[C@H]3O[C@H](CO)[C@@H](O)[C@H](O)[C@H]3N)O[C@@H]2CO)[C@H](N)[C@@H](O)[C@@H]1O` [Compound 7, L-Arg-9-mer-paromomycin], the concentration giving a half-maximal response (EC50) with HIV-1 IIIB (setting [7]) worked out at 31 ± 9 µM. Also, in the series “in vitro” (setting [8]), the CC50 came out at 140 µM.
